The test system of data set [1] is MDA-MB-231 cells. The data set can be described thus: Apoptosis/necrosis assay (Annexin V–propidium iodide, flow cytometry). It counts as cell-based, human. As to conditions: MDA-MB-231, 24 h; C14 and P8 at IC50-24, cisplatin 100 µM, doxorubicin 0.5 µM. Here is the method: (§1) To determine if the C14 and P8 compounds were able to evoke cell death by apoptosis or necrosis, cell lines MCF-10A, MDA-MB-231, and MDA-MB-231RR were treated at IC50-24 for 24 h. Apoptosis and necrosis were determined using the Apoptosis/Necrosis Detection kit (Abcam, Cambridge, UK) according to the manufacturer’s instructions. In brief, approximately 500,000 cells were seeded in 6-well plates (Corning) for 24 h. Then, each cell line was treated with the respective IC50-24 concentrations of C14 and P8. […] Cells were harvested and collected by centrifugation. All the samples were analyzed in triplicate using flow cytometry equipment FACSCalibur instrument (BD Biosciences, San Jose, CA, USA) at […] and 575-nm emission. Data analysis was performed using the FlowJo software (Tree Star Inc., Ashland, OR, USA). All experiments were performed in triplicate.
On the technique in general: Flow cytometry measures light scatter and fluorescence of single cells or particles in a stream.

Data set [2] concerns MDA-MB-231RR cells. Described as above. As to conditions: 24 h, C14 and P8 at IC50-24, cisplatin 100 µM, doxorubicin 0.5 µM. It is filed as cell-based, human. Here is the method: as §1
For data set [3], the system named is cyclin D1 and GSK3β in MDA-MB-231 cells. Put plainly: Western blotting of cyclin D1 and GSK3β. It counts as cell-based, human. As to conditions: MDA-MB-231, 3 h; for reduction in cyclin D1 expression: C14 and P8 at IC50-24 (Figure 7 legend), cisplatin 100 µM, doxorubicin 0.5 µM; for reduction in GSK3β expression: IC50-24 (Figure 7 legend), densitometry. The protocol: (§2) To determine the effect of the C14 and P8 compounds over the protein effectors of K-Ras4B, AKT, and ERK, immunoblotting assays were conducted with specific antibodies. In brief, MCF-10A, MDA-MB-231, and MDA-MB-231RR cells were plated in 100-mm culture dishes until 80% of confluents. Cell adhesion was allowed for 24 h. […] After pre-treatment, cells were stimulated with 100 ng/ml EGF for 10 minutes to promote AKT and ERK activation. Later, the whole-cell extracts were obtained by the lysis of the cells (Cytoskeleton) in the presence of proteases and phosphatase inhibitors. Subsequently, the protein extracts were incubated at 4°C for 40 minutes to be clarified by centrifugation for 10 minutes at 14,000 rpm, at 4°C. The protein concentration of each extract was determined by using the Precision Red Advanced Protein Assay Reagent (Cytoskeleton) Then, approximately 25 μg of protein extract was electrophoresed in 10% sodium dodecyl sulfate–polyacrylamide gel electrophoresis (SDS-PAGE) and transferred to polyvinylidene fluoride (PVDF) membranes (Millipore, Billerica, MA, USA). Blots were probed using the following primary antibodies: Total ERK (Cell Signaling, Danvers, MA, USA), pERK (Cell Signaling), Total AKT (Cell Signaling), pAKT (Cell Signaling), GSK3β (Cell Signaling), and cyclin D1 (Abcam) at a 1:1,000 dilution. As a control, an anti-GAPDH antibody (GeneTex, Irvine, CA, USA) was employed at a 1:100,000 dilution and γ-Tubulin (Invitrogen) 1:5,000. Densitometric analysis of blots was performed using the software ImageJ version 1.45 (National Institutes of Health, Bethesda, […], USA).
For orientation: A western blot detects proteins with antibodies after separation by electrophoresis.

The test system of data set [4] is cyclin D1 and GSK3β in MDA-MB-231RR cells. Put plainly: Western blotting of cyclin D1 and GSK3β. As to conditions: 3 h; for reduction in cyclin D1: C14 and P8 at IC50-24 (Figure 7 legend), cisplatin 100 µM, doxorubicin 0.5 µM; for reduction in GSK3β expression: IC50-24 (Figure 7 legend), densitometry. It is filed as cell-based, human. Here is the method: as §2
The nature of data set [5]: Body weight and survival of xenograft mice under treatment. It counts as in vivo. Here is the method:
Female immune-deficient Nu/Nu nude mice at 6–8 weeks of age ([…], Mexico City, Mexico) were maintained in pathogen-free conditions with irradiated chow. […] Body weight and tumor volume were measured every third day. Tumor sizes were calculated using the formula [(length × width2)/2] in mm.

Data set [6] deals with MDA-MB-231RR xenograft tumors. Put plainly: Immunohistochemistry and digital pathology of xenograft tumors. It is filed as in vivo, Nu/Nu nude mice. As to conditions: for expression of CD31 (IHC) / mitotic index (H&E staining): MDA-MB-231RR xenograft tumors; for PCNA expression (IHC, digital pathology) / VEGF expression (IHC, digital pathology) / cyclin D1 expression (IHC, digital pathology): MDA-MB-231RR xenograft tumors after treatment; for mitotic index (H&E staining): compared to the control group. Here is the method:
To determine the impact of C14 and P8 drugs on tumor inhibition, angiogenic, and cell cycle markers in a xenograft model, immunohistochemical assays and digital pathological analysis were conducted. For tissue preparation, 4-µm-thick tumor sections underwent a series of preparations: i) deparaffinization in xylene, ii) antigen retrieval in a sodium citrate buffer at pH 6, iii) blocking of endogenous peroxidase activity using a 10% hydrogen peroxide solution, and iv) non-specific binding blockade for 1 h. For the antibody incubation, the tumor sections were incubated with primary antibodies: Anti-Cyclin D1 (Abcam), Anti-PCNA (Abcam), Anti-CD31 (Abcam), Anti-VEGF (Abcam) at a 1:500 dilution.
The incubation with primary antibodies occurred at room temperature overnight. Subsequently, secondary antibody incubation was conducted. Then, the sections were incubated with horseradish peroxidase (HRP)-conjugated secondary antibody for 30 minutes. Finally, visualization and staining were performed using a diaminobenzidine (DAB) detection system from Vector Laboratories, Inc. (Burlingame, CA, USA). Counterstaining was performed using hematoxylin.
For the mitotic index evaluation, hematoxylin and eosin (H&E) staining was conducted to calculate the mitotic index. From each H&E-stained tumor tissue, 10 random fields were captured at ×40 magnification, and the number of mitotic figures was counted. The average count was used to calculate the mitotic index using the following formula: Mitotic index = Number of mitoses/10.
For digital pathology analysis, the immunohistochemistry (IHC)-stained sections were digitized using an Aperio ScanScope CS2 from Leica Biosystems (Nussloch, Germany), which generated high-resolution ×20 digital images (0.45 µm/pixel). These images were analyzed using ImageScope (Aperio, San Diego, CA, USA) to quantify marker expression. Then, a quantification algorithm was developed for each tissue to assess total and nuclear protein expression. The ImageScope allowed setting thresholds for color saturation and defining upper and lower limits for intensities of weak, moderate, and strong positive pixels. Lastly, the raw data encompassed the number of positive pixels and the intensity of positive pixels, which were normalized to the number of total pixels counted in µm^2. Data were presented as total density per µm^2.

This is an account of results in PMC10989073, “Antineoplastic effect of compounds C14 and P8 on TNBC and radioresistant TNBC cells by stabilizing the K-Ras4B^G13D/PDE6δ complex” (Frontiers in Oncology, 2024).

Structures are written as SMILES.

On to `O=C(CN1CCN(c2cccc(Cl)c2)CC1)N[C@@H]1CCOc2ccccc21` [P8, 2-[4-(3-chlorophenyl)piperazin-1-yl]-N-[(4R)-chroman-4-yl]acetamide], for which, in data set [1], the apoptosis cells is recorded as 48.5% and the necrosis is given as 4.28%. In data set [2], the apoptosis cells is on record as 72% and the necrosis is 1.75%. Also, in data set [3], the “reduction in cyclin D1 expression” value was found to be 20% and the “reduction in GSK3β expression” value stood at 40%. Further, in data set [4], the “reduction in cyclin D1” value was determined as 18% and the “reduction in GSK3β expression” value worked out at 25%. For the same compound, in data set [5] (Nu/Nu mice, 30 mg/kg i.p. daily), the “tolerability (weight loss, overall survival)” value is “well tolerated”. In data set [6], the “expression of CD31 (IHC)” value is “decreased”; the “PCNA expression (IHC, digital pathology)” value stood at 18 μm^2; the “VEGF expression (IHC, digital pathology)” value is listed as 3,000 μm^2; the “cyclin D1 expression (IHC, digital pathology)” value is given as 20 μm^2. Besides, the “mitotic index (H&E staining)” value in data set [6] is recorded as “lower”.
For the compound `CN(CC(=O)NC1CCOc2ccccc21)Cc1cccc(Cl)c1` (stereo not drawn) [C14, 2-[(3-chlorophenyl)-methyl-methyl-amino]-N-croman-4-yl-acetamide], in data set [1], the apoptosis cells result is recorded as “up to 18.52%” and the necrosis worked out at 0.56%. In addition, in data set [2], the apoptosis cells entry is “up to 21.62%” and the necrosis stood at 0.13%. In data set [3], the “reduction in cyclin D1 expression” value was 20% and the “reduction in GSK3β expression” value is listed as “did not show an effect”. Besides, in data set [4], the “reduction in cyclin D1” value came to 40% and the “reduction in GSK3β expression” value worked out at 50%. The “tolerability (weight loss, overall survival)” value in data set [5] (mouse, in vivo, ip, 30 mg/kg) is given as “well tolerated”. In addition, in data set [6], the “expression of CD31 (IHC)” value was “decreased”; the “PCNA expression (IHC, digital pathology)” value is 10 μm^2; the “VEGF expression (IHC, digital pathology)” value amounted to 100 μm^2; the “cyclin D1 expression (IHC, digital pathology)” value is on record as 8 μm^2. The “mitotic index (H&E staining)” value in data set [6] is on record as “lower”.
Consider `N.N.[Cl][Pt][Cl]` [Cisplatin, cisplatin, reference compound], for which, in data set [1], the apoptosis cells is 13.71% and the necrosis amounted to 2.14%. Moreover, in data set [2], the apoptosis cells entry is “up to 19.13%” and the necrosis stood at 0.40%. The “reduction in cyclin D1 expression” value in data set [3] was 10%. For the same compound, the “reduction in cyclin D1” value in data set [4] was found to be 20%. Besides, the survival of mice in data set [5] (Nu/Nu mice, cisplatin 6 mg/kg i.p. daily) is at most 6 days. This compound also showed a weight decrease in data set [5] (Nu/Nu mice, cisplatin 6 mg/kg i.p. daily, within the first 5 days of treatment) above 20%. In addition, in data set [6], the “PCNA expression (IHC, digital pathology)” value is given as 22 μm^2; the “VEGF expression (IHC, digital pathology)” value is 3,000 μm^2; the “cyclin D1 expression (IHC, digital pathology)” value is recorded as 25 μm^2.
